In ChEMBL document CHEMBL1201862, “PubChem BioAssay data set” (2004):
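Step 1: Grow cells in 96-well plates. Step 2: Expose to compound for 48 hours at 5 concentrations. Step 3: Interpolate endpoints linearly; if unreached, use highest concentration. GI50 is the concentration that inhibits growth by half.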 Calls of active or inactive are those of the source. Rule as the data show it: active = GI50 up to about 1.1 µM and inactive = higher.

Legend:
Test in all cases: DTP human tumour cell line panel, 48 h
SNB-19 = test system: SNB-19
UO-31 = test system: UO-31
SW-620 = test system: SW-620
SK-MEL-2 = test system: SK-MEL-2
MOLT-4 = test system: MOLT-4
M14 = test system: M14
SN12C = test system: SN12C
OVCAR-4 = test system: OVCAR-4
TK-10 = test system: TK-10
KM12 = test system: KM12
RPMI-8226 = test system: RPMI-8226
SK-MEL-28 = test system: SK-MEL-28
OVCAR-3 = test system: OVCAR-3
HCT-15 = test system: HCT-15
NCI-H226 = test system: NCI-H226
SR = test system: SR

| Compound | GI50 (SNB-19) | GI50 (UO-31) | GI50 (SW-620) | GI50 (SK-MEL-2) | GI50 (MOLT-4) | GI50 (M14) | GI50 (SN12C) | GI50 (OVCAR-4) | GI50 (TK-10) | GI50 (KM12) | GI50 (RPMI-8226) | GI50 (SK-MEL-28) | GI50 (OVCAR-3) | GI50 (HCT-15) [µM] | GI50 (NCI-H226) | GI50 (SR) |
| --- | --- | --- | --- | --- | --- | --- | --- | --- | --- | --- | --- | --- | --- | --- | --- | --- |
| COc1cc2cccc(/N=C/c3c(Br)ccc(OC)c3OC(C)C)c2cc1OC | > 100 µM (inactive) | 47.8 µM (inactive) | 32.4 µM (inactive) | > 100 µM (inactive) | 28.3 µM (inactive) | 27.1 µM (inactive) | > 100 µM (inactive) | 33 µM (inactive) | 70.8 µM (inactive) | 30.8 µM (inactive) | 22.1 µM (inactive) | 41.6 µM (inactive) | 33.7 µM (inactive) |  |  |  |
| Cc1cc(N(CCC#N)CCC#N)ccc1/C=N\c1ccc(C(=O)NN2C(=O)/C(=C/c3ccc(N(CCC#N)CCC#N)cc3)N=C2c2cc([N+](=O)[O-])ccc2Cl)cc1 | > 100 µM (inactive) | > 100 µM (inactive) | > 100 µM (inactive) | > 100 µM (inactive) |  | 62.7 µM (inactive) | > 100 µM (inactive) | > 100 µM (inactive) | > 100 µM (inactive) | > 100 µM (inactive) | > 100 µM (inactive) | > 100 µM (inactive) | > 100 µM (inactive) | 51.8 | > 100 µM (inactive) |  |
| CC(C)(C)CC(C)(C)c1cc2c(O)c(c1)Cc1cc(C(C)(C)CC(C)(C)C)cc(c1O)Cc1cc(C(C)(C)CC(C)(C)C)cc(c1O)Cc1cc(C(C)(C)CC(C)(C)C)cc(c1O)Cc1cc(C(C)(C)CC(C)(C)C)cc(c1O)Cc1cc(C(C)(C)CC(C)(C)C)cc(c1O)Cc1cc(C(C)(C)CC(C)(C)C)cc(c1O)Cc1cc(C(C)(C)CC(C)(C)C)cc(c1O)C2 | > 100 µM (inactive) | > 100 µM (inactive) | > 100 µM (inactive) | > 100 µM (inactive) | > 100 µM (inactive) | > 100 µM (inactive) | > 100 µM (inactive) | > 100 µM (inactive) | > 100 µM (inactive) | > 100 µM (inactive) | > 100 µM (inactive) | > 100 µM (inactive) | > 100 µM (inactive) | > 100 |  |  |
| O=C(c1cc(=O)c2ccc(O)cc2o1)c1ccc(Cl)cc1Cl | 49.1 µM (inactive) | 5.92 µM (inactive) | 12.2 µM (inactive) | 26 µM (inactive) | 2.81 µM (inactive) | 5.12 µM (inactive) | 17.2 µM (inactive) | 12 µM (inactive) | 38.5 µM (inactive) | 5.9 µM (inactive) | 9.66 µM (inactive) | > 59.3 µM (inactive) | 15.5 µM (inactive) | 4.63 | 26.7 µM (inactive) |  |
| O=C(CC1(O)C(=O)Nc2ccccc21)c1ccccc1O (stereo not drawn) | > 100 µM (inactive) | 91.6 µM (inactive) | > 100 µM (inactive) | > 100 µM (inactive) | > 100 µM (inactive) | > 100 µM (inactive) | > 100 µM (inactive) | > 100 µM (inactive) | > 100 µM (inactive) |  | > 100 µM (inactive) | > 100 µM (inactive) | > 100 µM (inactive) | > 100 | > 100 µM (inactive) |  |
| C[C@@H](O)CCC(=O)c1ccoc1 | > 100 µM (inactive) | > 100 µM (inactive) | > 100 µM (inactive) | > 100 µM (inactive) | > 100 µM (inactive) | > 100 µM (inactive) | > 100 µM (inactive) | > 100 µM (inactive) | > 100 µM (inactive) | > 100 µM (inactive) | > 100 µM (inactive) | > 100 µM (inactive) | > 100 µM (inactive) | > 100 | > 100 µM (inactive) | > 84.3 µM (inactive) |
| O=C(OCc1ccccc1)N1N=NC2C1C1CC(OCc3ccccc3)(OCc3ccccc3)C2O1 (stereo not drawn) |  | > 100 µM (inactive) | > 100 µM (inactive) | > 100 µM (inactive) | > 100 µM (inactive) | > 100 µM (inactive) | > 100 µM (inactive) | > 100 µM (inactive) |  | > 100 µM (inactive) | > 100 µM (inactive) | > 100 µM (inactive) | > 100 µM (inactive) | > 100 | > 100 µM (inactive) |  |
| O/N=C1/C(=C/c2ccccc2)CCCC1C(NO)c1ccccc1 (stereo not drawn) | 91.4 µM (inactive) | 57.1 µM (inactive) | > 100 µM (inactive) | > 100 µM (inactive) | 26.4 µM (inactive) | 84.9 µM (inactive) | 69.8 µM (inactive) | 31.3 µM (inactive) | > 100 µM (inactive) | 85.3 µM (inactive) | 35.5 µM (inactive) | > 100 µM (inactive) | > 100 µM (inactive) | > 100 |  |  |
| COc1ccc(C(=O)C2CCC(C(=O)O)C2)cc1 (stereo not drawn) | > 100 µM (inactive) | > 100 µM (inactive) | > 100 µM (inactive) | > 100 µM (inactive) | > 100 µM (inactive) | > 100 µM (inactive) | > 100 µM (inactive) | > 100 µM (inactive) | > 100 µM (inactive) | > 100 µM (inactive) | > 100 µM (inactive) | > 100 µM (inactive) | > 100 µM (inactive) | > 100 | > 100 µM (inactive) | > 100 µM (inactive) |
| CC(C)(C)c1cc2c(OP(c3ccccc3)c3ccccc3)c(c1)Cc1cc(C(C)(C)C)cc(c1OP(c1ccccc1)c1ccccc1)Cc1cc(C(C)(C)C)cc(c1OP(c1ccccc1)c1ccccc1)Cc1cc(C(C)(C)C)cc(c1OP(c1ccccc1)c1ccccc1)C2 | > 5 µM (inactive) | > 5 µM (inactive) | > 5 µM (inactive) | > 5 µM (inactive) | > 5 µM (inactive) | > 5 µM (inactive) | > 5 µM (inactive) | > 5 µM (inactive) | > 5 µM (inactive) | > 5 µM (inactive) | > 5 µM (inactive) | > 5 µM (inactive) | > 5 µM (inactive) | > 5 | > 5 µM (inactive) | 2.66 µM (inactive) |
| CC1=CC(C)(c2c[nH]c3ccccc23)CC(C)(C)c2c1[nH]c1ccccc21 (stereo not drawn) | 26.5 µM (inactive) | 13.2 µM (inactive) | 16.9 µM (inactive) |  | 6.93 µM (inactive) | 17.9 µM (inactive) | 14.3 µM (inactive) | 13.4 µM (inactive) | 43.1 µM (inactive) | 23.7 µM (inactive) | 11.9 µM (inactive) | 14.5 µM (inactive) | 14 µM (inactive) |  | 18.6 µM (inactive) | 12.5 µM (inactive) |
| COc1cc(Nc2nc3cc(C)ccc3nc2-c2ccccc2)cc(OC)c1OC | 57.4 µM (inactive) | 17.2 µM (inactive) | 58.1 µM (inactive) | 23 µM (inactive) | 18.3 µM (inactive) | 29.3 µM (inactive) | 28.7 µM (inactive) | 33 µM (inactive) | 42 µM (inactive) | 34.4 µM (inactive) |  | 16.6 µM (inactive) | 18.5 µM (inactive) | 15.5 |  | 16.2 µM (inactive) |
| COc1ccc(/C=C(\NC(=O)c2ccccc2)c2nc3ccccc3[nH]2)cc1 | 37.3 µM (inactive) | 22.4 µM (inactive) | 46.6 µM (inactive) | 21.1 µM (inactive) | 24.5 µM (inactive) | 33.4 µM (inactive) | 41.3 µM (inactive) | 17.3 µM (inactive) |  | 39.6 µM (inactive) | 18.9 µM (inactive) | 14.6 µM (inactive) | 34.5 µM (inactive) | 48.2 | 72.9 µM (inactive) | 28.1 µM (inactive) |
| COc1ccc(C)cc1-c1cc(Sc2ccccc2)c(-c2cc(C)ccc2OC)o1 | > 31.6 µM (inactive) | > 31.6 µM (inactive) | > 29.6 µM (inactive) | > 10 µM (inactive) | > 31.6 µM (inactive) | > 31.6 µM (inactive) | > 31.6 µM (inactive) | > 31.6 µM (inactive) | > 31.6 µM (inactive) | > 31.6 µM (inactive) | > 31.6 µM (inactive) | > 31.6 µM (inactive) | > 31.6 µM (inactive) | > 31.6 | > 31.6 µM (inactive) |  |
| C[C@]12CC/C(=N\OC(=O)Nc3ccccc3)C=C1CC[C@@H]1C2CC[C@@]2(C)C1CC[C@@H]2OC(=O)Nc1ccccc1 (stereo partly drawn) | > 100 µM (inactive) | > 100 µM (inactive) | > 100 µM (inactive) | > 100 µM (inactive) | > 100 µM (inactive) | 35.9 µM (inactive) | 11.7 µM (inactive) | > 100 µM (inactive) | > 100 µM (inactive) | 41.9 µM (inactive) | 15.4 µM (inactive) |  | > 100 µM (inactive) | 3.3 |  |  |
| O=C1c2ccccc2C(=O)c2c1ccc1c3ccccc3n(Cc3ccccc3)c21 |  | > 100 µM (inactive) | > 100 µM (inactive) | > 100 µM (inactive) | > 100 µM (inactive) | > 100 µM (inactive) | > 100 µM (inactive) | 53.6 µM (inactive) |  | > 100 µM (inactive) | > 100 µM (inactive) |  | > 100 µM (inactive) | > 100 | 54.6 µM (inactive) | > 100 µM (inactive) |
| NC(=O)C12CC3CC(CC(Br)(C3)C1)C2 | > 100 µM (inactive) | > 100 µM (inactive) | > 100 µM (inactive) |  | > 100 µM (inactive) | > 100 µM (inactive) | > 100 µM (inactive) | > 100 µM (inactive) | > 100 µM (inactive) | > 100 µM (inactive) | > 100 µM (inactive) | > 100 µM (inactive) | > 100 µM (inactive) | > 100 |  | > 100 µM (inactive) |
| CC1(Sc2ccccc2)CN(Cc2ccccc2)C1=O (stereo not drawn) | > 100 µM (inactive) | 22.8 µM (inactive) | > 100 µM (inactive) | > 100 µM (inactive) | 49.7 µM (inactive) | > 100 µM (inactive) | > 100 µM (inactive) | 88.5 µM (inactive) | > 100 µM (inactive) | > 100 µM (inactive) | 57.3 µM (inactive) | > 100 µM (inactive) | > 100 µM (inactive) | 75.2 | > 100 µM (inactive) |  |
